According to ChEMBL document CHEMBL1201862, “PubChem BioAssay data set” (2004):
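Assay format: 96-well plates, 48-hour exposure. Here, GI50 denotes the concentration required for 50% inhibition of growth.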 Activity calls are given as the source filed them. Cut-off read from the data, not from the text of the source: active = GI50 up to about 1.1 µM and inactive = higher.

Key:
Experiment in all cases: NCI-60 cell line screen, 48 h
SK-MEL-28 = system: SK-MEL-28
ACHN = system: ACHN
MCF7 = system: MCF7
NCI-H226 = system: NCI-H226
SR = system: SR
KM12 = system: KM12
EKVX = system: EKVX
NCI-H23 = system: NCI-H23
CCRF-CEM = system: CCRF-CEM
SK-MEL-5 = system: SK-MEL-5
SN12C = system: SN12C
HOP-62 = system: HOP-62
MDA-MB-231 = system: MDA-MB-231
IGROV-1 = system: IGROV-1
SF-295 = system: SF-295
HCC 2998 = system: HCC 2998
Malme-3M = system: Malme-3M
LOX IMVI = system: LOX IMVI
OVCAR-5 = system: OVCAR-5
K562 = system: K562

| SMILES | GI50 (SK-MEL-28) | GI50 (ACHN) | GI50 (MCF7) | GI50 (NCI-H226) | GI50 (SR) | GI50 (KM12) | GI50 (EKVX) | GI50 (NCI-H23) | GI50 (CCRF-CEM) | GI50 (SK-MEL-5) | GI50 (SN12C) | GI50 (HOP-62) | GI50 (MDA-MB-231) | GI50 (IGROV-1) | GI50 (SF-295) | GI50 (HCC 2998) | GI50 (Malme-3M) | GI50 (LOX IMVI) | GI50 (OVCAR-5) | GI50 (K562) |
| --- | --- | --- | --- | --- | --- | --- | --- | --- | --- | --- | --- | --- | --- | --- | --- | --- | --- | --- | --- | --- |
| COc1cccc2nc3c(C(=O)NCCN(C)C)cccc3cc12 | 2.63 µM (inactive) | 0.655 µM (active) | 1.12 µM (active) | 1.4 µM (inactive) | 0.42 µM (active) | 2.3 µM (inactive) | 2.38 µM (inactive) | 1.17 µM (inactive) | 0.518 µM (active) | 1.41 µM (inactive) | 1.16 µM (inactive) | 1.19 µM (inactive) | 2.37 µM (inactive) | 1.88 µM (inactive) | 2.12 µM (inactive) | 3.44 µM (inactive) | 1.56 µM (inactive) | 0.771 µM (active) | 1.94 µM (inactive) | 1.95 µM (inactive) |
| Cc1c2ncccc2c(C)c2c1[nH]c1ccc(O)cc12 | 13.5 µM (inactive) | 2.02 µM (inactive) | 2.65 µM (inactive) | 6.68 µM (inactive) | 1.74 µM (inactive) | 3.6 µM (inactive) | 1.4 µM (inactive) | 6.58 µM (inactive) | 1.33 µM (inactive) | 7.24 µM (inactive) | 2.24 µM (inactive) | 1.86 µM (inactive) | 4.93 µM (inactive) | 3.89 µM (inactive) | 2.48 µM (inactive) | 6.3 µM (inactive) | 8.87 µM (inactive) | 1.71 µM (inactive) | 11.3 µM (inactive) | 3.44 µM (inactive) |
| O=C(CC(C(=O)c1cccs1)c1cccs1)c1ccccc1Cl (stereo not given) | 81.7 µM (inactive) | > 100 µM (inactive) | > 100 µM (inactive) | > 100 µM (inactive) | 39.5 µM (inactive) | 93.1 µM (inactive) | 49.8 µM (inactive) | 33 µM (inactive) | > 100 µM (inactive) | > 100 µM (inactive) | > 100 µM (inactive) | > 100 µM (inactive) | > 100 µM (inactive) | > 100 µM (inactive) | > 100 µM (inactive) | > 100 µM (inactive) | 61.8 µM (inactive) | > 100 µM (inactive) | > 100 µM (inactive) | 98.4 µM (inactive) |
| COC(=O)C1=CON2C3CC4CC(C3)CC(C4)C12C (stereo not given) | > 100 µM (inactive) | > 100 µM (inactive) | > 100 µM (inactive) | > 100 µM (inactive) | > 100 µM (inactive) | > 100 µM (inactive) | > 100 µM (inactive) | > 100 µM (inactive) | > 100 µM (inactive) | > 100 µM (inactive) | > 100 µM (inactive) | > 100 µM (inactive) | > 100 µM (inactive) | > 100 µM (inactive) | > 100 µM (inactive) | > 100 µM (inactive) | > 100 µM (inactive) | > 100 µM (inactive) | > 100 µM (inactive) | > 100 µM (inactive) |
| COc1c(OC(C)=O)c(OC(C)=O)cc2c1-c1ccc(OC)c(=O)cc1C(NC(C)=O)CC2 (stereo not given) | < 0.0363 µM (active) | 0.439 µM (active) | < 0.01 µM (active) | 0.331 µM (active) | 0.0128 µM (active) | 0.0154 µM (active) | 8.51 µM (inactive) | 0.0199 µM (active) | 0.013 µM (active) | 0.0116 µM (active) | 0.0348 µM (active) | 0.0635 µM (active) | 0.0129 µM (active) | 0.0254 µM (active) | 0.0424 µM (active) | 0.0217 µM (active) | < 0.01 µM (active) | < 0.0147 µM (active) | 2.61 µM (inactive) | < 0.0123 µM (active) |
